US6410265B1, “Gene encoding a putive efflux protein for solvents/antibiotics in Pseudomonas mendocina” (priority 1997, dated 2002)

What was measured:
4.5X(−) = experiment: Sensitivity to PHBA: cell growth in liquid minimal medium by optical density; format: cell-based, Pseudomonas mendocina; settings: in the presence of 50 mM PHBA, same condition for both strains
Protocol: (§1) The transformed Pseudomonas mendocina KR-1, carrying the disrupted putative efflux 4.5X gene, was grown on the agar plates in the presence of different antibiotics or high concentration of PHBA. The growth of the strain with the disrupted 4.5X gene was compared with that of wild type Pseudomonas mendocina strain KR-1.
The cells were innoculated in the liquid medium consisting of minimal medium (in 1 L solution, sodium phosphate, monobasic, 1.85 g; potassium phosphate, dibasic, 5.84 g; ammonia sulphate, 1.5 g; yeast extract, 500 mg; 1x minerals, 2% glucose and 50 mM PHBA). The cultures were kept at 30° C. in a shaker incubator for 48 hours. The cell growth was monitored by optical density (O.D) measurements using a spectrophotometer.

4.5X(−) Pseudomonas = experiment: Antibiotic resistance: colony growth on LB/agar plates with antibiotics; format: cell-based, Pseudomonas mendocina; settings: strain with disrupted 4.5X gene; agar plates, concentration ranging from 5 1μg/mL to 25 μg/mL
Protocol: as §1
The colonies were innoculated on the LB plates with different antibiotics separately. The antibiotics include Amp (50 μg/mL), Strep (10 μg/mL), Tec (10 μg/mL), Kam (25 μg/mL) and CM (5 μg/mL, 15 μg/mL and 25 μg/mL). The plates were kept at 30° C. for 48 hour. The growth of the colonies was scored based on the growth of wildtype strain KR-1 and the growth of these colonies on LB plates.

SMILES	Growth of 4.5X(−) strain relative to wildtype strain (4.5X(−))	Growth on plates with chloramphenicol (4.5X(−) Pseudomonas)
O=C(O)c1ccc(O)cc1 [PHBA, p-hydroxybenzoic acid]	four times slower	
O=C(N[C@H](CO)[C@H](O)c1ccc([N+](=O)[O-])cc1)C(Cl)Cl [CM, choromphenecol]		unable to grow
